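Abbreviation: GI50, concentration required for 50% inhibition of growth. TGI marks complete inhibition of growth.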
Experiments:
Assay in all cases: DTP human tumour cell line panel, 384-well format
786-0 renal = test system: 786-0 renal
A498 renal = test system: A498 renal
A549 NSCLC = test system: A549 NSCLC
ACHN renal = test system: ACHN renal
BT-549 breast = test system: BT-549 breast
CAKI-1 renal = test system: CAKI-1 renal
CCRF-CEM leukemia = test system: CCRF-CEM leukemia
COLO 205 colon = test system: COLO 205 colon
DU-145 prostate = test system: DU-145 prostate
EKVX NSCLC = test system: EKVX NSCLC
HCC-2998 colon = test system: HCC-2998 colon
HCT-116 colon = test system: HCT-116 colon
HCT-15 colon = test system: HCT-15 colon
HL-60(TB) leukemia = test system: HL-60(TB) leukemia
HOP-62 NSCLC = test system: HOP-62 NSCLC
HOP-92 NSCLC = test system: HOP-92 NSCLC
HS 578T breast = test system: HS 578T breast
HT29 colon = test system: HT29 colon
IGROV1 ovarian = test system: IGROV1 ovarian
K-562 leukemia = test system: K-562 leukemia
KM12 colon = test system: KM12 colon
LOX IMVI melanoma = test system: LOX IMVI melanoma
M14 melanoma = test system: M14 melanoma
MALME-3M melanoma = test system: MALME-3M melanoma
MCF7 breast = test system: MCF7 breast
MDA-MB-231 breast = test system: MDA-MB-231 breast
MDA-MB-435 melanoma = test system: MDA-MB-435 melanoma
MDA-MB-468 breast = test system: MDA-MB-468 breast
MOLT-4 leukemia = test system: MOLT-4 leukemia

Compound: O=C(NO)c1ccc(CN(c2cnccn2)c2cnccn2)cc1
- GI50 ([…]-0 renal): 14.5 µM
- TGI (786-0 renal): 27.8 µM
- GI50 (A498 renal): 11.9 µM
- TGI (A498 renal): 25.8 µM
- GI50 (A549 NSCLC): 13.8 µM
- TGI (A549 NSCLC): 27.1 µM
- GI50 (ACHN renal): 11.2 µM
- TGI (ACHN renal): 23.8 µM
- GI50 (BT-549 breast): 11.5 µM
- TGI (BT-549 breast): 24.1 µM
- GI50 (CAKI-1 renal): 12.4 µM
- TGI (CAKI-1 renal): 26 µM
- GI50 (CCRF-CEM leukemia): 2.32 µM
- TGI (CCRF-CEM leukemia): 4.28 µM
- GI50 (COLO 205 colon): 3.36 µM
- TGI (COLO 205 colon): 8.11 µM
- GI50 (DU-145 prostate): 3.71 µM
- TGI (DU-145 prostate): 13.1 µM
- GI50 (EKVX NSCLC): 7.91 µM
- TGI (EKVX NSCLC): 20.2 µM
- GI50 (HCC-2998 colon): 12 µM
- TGI (HCC-2998 colon): 24.4 µM
- GI50 (HCT-116 colon): 3.01 µM
- TGI (HCT-116 colon): 11.2 µM
- GI50 (HCT-15 colon): 11.7 µM
- TGI (HCT-15 colon): 24.3 µM
- GI50 (HL-60(TB) leukemia): 7.18 µM
- TGI (HL-60(TB) leukemia): 18.9 µM
- GI50 (HOP-62 NSCLC): 12.4 µM
- TGI (HOP-62 NSCLC): 25.5 µM
- GI50 (HOP-92 NSCLC): 11.9 µM
- TGI (HOP-92 NSCLC): 24.5 µM
- GI50 (HS 578T breast): 10.5 µM
- TGI (HS 578T breast): 22.4 µM
- GI50 (HT29 colon): 15.6 µM
- TGI (HT29 colon): 29.7 µM
- GI50 (IGROV1 ovarian): 11.8 µM
- TGI (IGROV1 ovarian): 24.1 µM
- GI50 (K-562 leukemia): 7.51 µM
- TGI (K-562 leukemia): 20.2 µM
- GI50 (KM12 colon): 3.31 µM
- TGI (KM12 colon): 12.3 µM
- GI50 (LOX IMVI melanoma): 7.46 µM
- TGI (LOX IMVI melanoma): 19.8 µM
- GI50 (M14 melanoma): 3.93 µM
- TGI (M14 melanoma): 14.3 µM
- GI50 (MALME-3M melanoma): 3.38 µM
- TGI (MALME-3M melanoma): 12.6 µM
- GI50 (MCF7 breast): 4.65 µM
- TGI (MCF7 breast): 19.4 µM
- GI50 (MDA-MB-231 breast): 15.7 µM
- TGI (MDA-MB-231 breast): 29.4 µM
- GI50 (MDA-MB-435 melanoma): 4.96 µM
- TGI (MDA-MB-435 melanoma): 15 µM
- GI50 (MDA-MB-468 breast): 2.49 µM
- TGI (MDA-MB-468 breast): 10 µM
- GI50 (MOLT-4 leukemia): 1.92 µM
- TGI (MOLT-4 leukemia): 3.52 µM
